In one series the test system is Parainfluenza type 3. The experiment in a line: Antiviral activity, Parainfluenza type 3 (MA-104). The format is cell-based. The conditions noted are these: MA104.
Another series concerns VZV. As to the kind of experiment: Antiviral activity, VZV (HFF). The format is cell-based. The conditions noted are these: Human alphaherpesvirus 3.
A short description of the next series: in vitro. Particulars: African green monkey.
Series [1] deals with LLC-MK2, Rhesus monkey kidney cells. Particulars: Punta Toro A line.
For series [2], the system named is MEF mouse embryo fibroblasts. As to the kind of experiment: Cytotoxicity assay, MEF. Particulars: MCMV (MEF) line.
The next series has as its system Influenza B. As to the kind of experiment: Antiviral activity, Influenza B (MDCK). The format is cell-based. Particulars: Influenza B virus.
For a further series, the system named is BVDV (strain NADL). The experiment in a line: BVDV cell protection assay (CPA). The format is cell-based. The conditions noted are these: Bovine viral diarrhea virus isolates and strains, MOI of BVDV 0.04.
Another series relates to HSV-2. As to the kind of experiment: Antiviral activity, HSV-2 (HFF). The format is cell-based. Particulars: Human alphaherpesvirus 2.
Series [3] deals with HepG2 human hepatoma cell line. The experiment in a line: Cytotoxicity (cell proliferation) assay, HepG2. The conditions noted are these: cells grown on collagen coated plates for 4 or 10 d.
A short description of series [4]: Cytotoxicity (cell proliferation) assay, HepG2. Particulars: human, HepG2 cells.
For series [5], the system named is HeLa, human cervical adenocarcinoma cells. As to the kind of experiment: Cytotoxicity, HeLa-Ohio. The format is cell-based. Particulars: Rhinovirus type 14 line.

pEC50: −log10 of the molar value.

Consider one compound from patent US7625875B2 (priority 2002, dated 2009).

Usually pEC50 stands for −log10 of the EC50, conventionally taken in molar units. A word on the EC50: it is the concentration that produces a half-maximal response.

With `CC1(O)C(O)C(CO)OC1n1ccc(N)nc1=O` (centres unmarked) [mCyd, 4-Amino-1-(3,4-dihydroxy-5-hydroxymethyl-3-methyl-tetrahydro-furan-2-yl)-1H-pyrimidine-2-one], the pEC50 in the series with Parainfluenza type 3 was under 3.70; in the series with Influenza B, under 3.70; in the series on BVDV (strain NADL), 6.30. The EC50 was over 20 µg/mL with VZV and over 100 µg/mL with HSV-2. Further, the CC50 in the series “in vitro” is over 100 µM; in series [1] it was over 200 µM; in [2], 2400 nM; in [3], over 200 µM; in series [4], 200 µM; in series [5], 20->100 μg/mL.
